Reference: patent publication EP4206196A1, “PYRIMIDINE SUBSTITUTED DERIVATIVES AS TYK2 INHIBITORS” (Almirall S.A., priority 2021, dated 2023)

How the values were obtained:
[1] = biological target: T1, TYK2 (JH2domain-pseudokinase) (Homo sapiens, UniProt P29597); experiment: TYK2 JH2 domain binding assay (KINOMEscan)
T1 construct: TYK2 (JH2domain-pseudokinase)-tagged T7 phage strains were prepared in an E. coli host derived from the BL21 strain; made in house; host or cells: E. coli BL21-derived host (T7 phage) or HEK-293 cells
T1 sequence (P29597 589-875 limits assumed): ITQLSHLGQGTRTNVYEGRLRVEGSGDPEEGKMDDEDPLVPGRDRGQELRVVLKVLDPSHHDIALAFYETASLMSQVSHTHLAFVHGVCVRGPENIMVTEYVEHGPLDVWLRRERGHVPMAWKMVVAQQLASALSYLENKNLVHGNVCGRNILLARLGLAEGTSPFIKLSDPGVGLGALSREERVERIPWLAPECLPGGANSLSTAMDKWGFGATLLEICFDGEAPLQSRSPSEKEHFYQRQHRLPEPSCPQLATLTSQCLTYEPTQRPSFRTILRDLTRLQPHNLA
Outline: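 Kd values come from nonlinear least-squares fits of 11-point 3-fold dilutions (mostly 30,000 nM top, lowered when Kd fell below 0.5 nM). Test compound competed with bead-bound biotinylated ligand for qPCR-tagged TYK2 pseudokinase (JH2) domain, shaken 1 h at room temperature, with about 1% final DMSO.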

[2] = system: STAT1/3 through TYK2/JAK1; experiment: IFNa induced STAT phosphorylation in HEK293 cells (SIE-bla reporter gene); type: cell-based; details: Homo sapiens, HEK293; HEK293T-sie-bla cells, IFNa at EC80, 4 hours; read-out: Inhibition of IFNa induced STAT phosphorylation HEK293 cells IC50
Outline: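 Read-out was FRET from a β-lactamase reporter under a SIE promoter in HEK293T cells, with substrate added after a 4 h, 37°C co-incubation of compound and EC80 IFNa and left overnight in the dark. Compounds ran as 10-point 1/5 dilutions at 0.1% final DMSO; four-parameter log fit gave IC50.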

STAT6 through JAK1/JAK3 = experiment: IL4 induced STAT phosphorylation in Ramos cells (STAT6-bla reporter gene); type: cell-based; details: Homo sapiens, Ramos; for inhibition at 5 µM: compound concentration 5 µM
Method: Stimulation of RAMOS cells with interleukine IL-4 activates the signaling pathway of STAT6 through JAK1/JAK3. In this assay, measurement of the activity of the reporter gene β-lactamase expression was used as the readout.
Ramos STAT6-bla RA-1 cell line were purchased from Life Technologies (ref. #K1243) and cultured as specified by the provider. A number of 30.000 cells per well (35 µl) were plated in a 384-well plate (Corning ref.# 3712) and cultured overnight at 37°C with 5% CO2 in a complete Optimem media (Life Technologies ref. #11058-021) containing 556 µg/mL CD40 (Life Technologies ref. #PHP0025), 0.5% (v/v) heat inactivated FBS (Life Technologies ref. #10082-147), 10 µM non-essential aminoacids NEAA (Sigma ref. #M7145), 100 µM Sodium Pyruvate (Gibco ref. #11360-039) and 100 U/mL Penicillin (Sigma ref. #P0781). Compounds were initially dissolved in 100% DMSO. Compound curves were then prepared using a 1/5 serial dilution (10 dilutions). The dilutions were directly diluted in complete Optimem media without CD40 at 40-fold their final concentration in 20% DMSO. IL-4 initial solution (Prepotech ref. #200-04) was prepared at 10-fold its EC80 in complete Optimem media without CD40. Compounds and IL-4 were added simultaneously to the wells with cells and incubated during 4 hours at 37°C (the final DMSO was 0.1%). The β-lactamase substrate (LifeTechnologies ref.#K1138) was prepared at 6-fold its final concentration as specified by the provider. Then 10 µL of the mixture was added to the wells to stop the stimulation. Plate was left in the dark over-night. Then a FRET reading was performed on an appropriate plate reader.
All experiments were analysed using an ExcelFit template and the four-parameter log equation. As % vs compound concentration. TABLE 3: Inhibition of IL4 induced STAT phosphorylation in Ramos cells.

Row | Compound | Kd [1] | IC50 [2] | inhibition at 5 µM (STAT6 through JAK1/JAK3) | inhibition at 25 µM (STAT6 through JAK1/JAK3; compound concentration 25 µM)
1 | Cc1cc(Nc2cc(Nc3ncc(-c4cnn(C)c4C)cc3N(C)S(C)(=O)=O)ncn2)ncn1 [Example 135, N-[5-(1,5-dimethylpyrazol-4-yl)-2-[[6-[(6-methylpyrimidin-4-yl)amino]pyrimidin-4-yl]amino]-3-pyridyl]-N-methyl-methanesulfonamide] | < 0.0002 µM | 0.1 to 1 µM | 37% | 
2 | Cc1cc(Nc2cc(Nc3ncc(-c4cnn(C)c4C)cc3S(C)(=O)=O)ncn2)nc(C)n1 [Example 137, N4-[5-(1,5-dimethylpyrazol-4-yl)-3-methylsulfonyl-2-pyridyl]-N6-(2,6-dimethylpyrimidin-4-yl)pyrimidine-4,6-diamine] | < 0.0002 µM | < 0.01 µM |  | 0%
3 | Cc1c(-c2cnc(Nc3cc(Nc4ccc(F)cn4)ncn3)c(N(C)S(C)(=O)=O)c2)cnn1C [Example 138, N-[5-(1,5-dimethylpyrazol-4-yl)-2-[[6-[(5-fluoro-2-pyridyl)amino]pyrimidin-4-yl]amino]-3-pyridyl]-N-methyl-methanesulfonamide] | < 0.0002 µM | < 0.01 µM | 6% | 
4 | Cc1c(-c2cnc(Nc3cc(NC(=O)C4CC4)ncn3)c(N(C)S(C)(=O)=O)c2)cnn1C [Example 139, N-[6-[[5-(1,5-dimethylpyrazol-4-yl)-3-[methyl(methylsulfonyl)amino]-2-pyridyl]amino]pyrimidin-4-yl]cyclopropanecarboxamide] | < 0.0002 µM | < 0.01 µM | 28% | 
